# Activity calls are given as the source filed them.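 The calls were made as follows: active = fitted curve drops below -35% activity change at a concentration within twice the highest valid tested dose; inactive = activity opposite to the expected direction, or the rest.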
# System: HEK293 TNFa-induced NF-kB eGFP reporter, flow cytometry, 16 h
# Experiment: canonical NF-kB pathway blockers in HEK293 – cell-based, flow cytometry, eGFP/dsRED, dry powder, selectivity assay for LMP1 NF-kB inhibitor project, dose response (AID 652043)
# Settings: not given
row,Compound,AC35 [µM]
1,CS(=O)(=O)Nc1ccc2c(c1)[C@@H]1C[C@@H](CC(=O)NCc3ccc(Oc4ccccc4)cc3)O[C@@H](CO)[C@@H]1O2,0.623
2,O=C(C[C@@H]1C[C@H]2c3cc(NC(=O)Nc4ccccc4F)ccc3O[C@H]2[C@H](CO)O1)NCc1ccc(Oc2ccccc2)cc1,16.2
3,O=C(C[C@@H]1C[C@H]2c3cc(NC(=O)C4CCOCC4)ccc3O[C@H]2[C@H](CO)O1)NCc1ccc(Oc2ccccc2)cc1,16.4
4,Cc1cc(C(=O)Nc2ccc3c(c2)C(=O)N(C)[C@@H]2CC[C@H](CC(=O)N[C@H](C)c4ccccc4)O[C@H]2CO3)no1,18.1
5,O=C(C[C@@H]1C[C@H]2c3cc(NC(=O)NC4CCCC4)ccc3O[C@H]2[C@H](CO)O1)NCc1ccc(Oc2ccccc2)cc1,8.04
6,COc1ccccc1[C@]1(C)ON(c2ccccc2C(F)(F)F)C1=O,10.6
7,Nc1ccn([C@@H]2O[C@H](CO)[C@@H](O)C2O)c(=O)n1 (some centres not stated),7.24
8,CN(C)c1ccc2c(c1)[C@@H]1C[C@@H](CC(=O)N3CCOCC3)O[C@@H](CO)[C@@H]1O2,1.95
9,CN(C)c1ccc2c(c1)[C@@H]1C[C@@H](CC(=O)NCc3cc(F)ccc3F)O[C@@H](CO)[C@@H]1O2,1.41
10,Cc1cc(C(=O)Nc2ccc3c(c2)C(=O)N(C)[C@@H]2CC[C@H](CC(=O)NC4CCCC4)O[C@H]2CO3)no1,10
11,O=C(Nc1ccc(C(F)(F)F)cc1)Nc1ccc2c(c1)[C@H]1C[C@@H](CC(=O)N3CCc4ccccc4C3)O[C@@H](CO)[C@H]1O2,15.8
12,CN1C(=O)c2cc(NC(=O)Nc3ccccc3F)ccc2OC[C@@H]2O[C@@H](CC(=O)NCc3ccc(-c4ccccc4)cc3)CC[C@H]21,0.161

# System: not listed separately
# Experiment: as above
# Settings: HEK293 TNFa-induced NF-kB eGFP reporter, flow cytometry, 16 h; at 18 µM (top of the series)
row,Compound,"activity change, negative = inhibition"
1,Cc1cc(C(=O)Nc2ccc3c(c2)C(=O)N(C)[C@@H]2CC[C@H](CC(=O)NCc4ccc(-c5ccccc5)cc4)O[C@H]2CO3)no1,-3.35% (inactive)

# Same assay, conditions: HEK293 TNFa-induced NF-kB eGFP reporter, flow cytometry, 16 h; at 19.5 µM (top of the series)
row,Compound,"activity change, negative = inhibition"
1,CN(C)c1ccc2c(c1)[C@@H]1C[C@@H](CC(=O)NCc3ccccn3)O[C@@H](CO)[C@@H]1O2,-11.4% (inactive)
2,CCCNC(=O)C[C@H]1CC[C@@H]2[C@H](COc3ccc(NC(=O)c4cc(C)on4)cc3C(=O)N2C)O1,-2.12% (inactive)
3,CN(C)c1ccc2c(c1)[C@@H]1C[C@@H](CC(=O)NC3CCCCC3)O[C@@H](CO)[C@@H]1O2,-7.37% (inactive)
4,CN(C)c1ccc2c(c1)[C@@H]1C[C@@H](CC(=O)NCc3ccc4c(c3)OCO4)O[C@@H](CO)[C@@H]1O2,-10.4% (inactive)
5,CN(C)c1ccc2c(c1)[C@@H]1C[C@@H](CC(=O)NCC3CC3)O[C@@H](CO)[C@@H]1O2,-0.472% (inactive)
6,CNC(=O)C[C@H]1CC[C@@H]2[C@H](COc3ccc(NC(=O)c4cc(C)on4)cc3C(=O)N2C)O1,-1.72% (inactive)
7,CN(C)c1ccc2c(c1)[C@@H]1C[C@@H](CC(=O)NCc3cccc(F)c3)O[C@@H](CO)[C@@H]1O2,-9.54% (inactive)
8,CN(C)c1ccc2c(c1)[C@@H]1C[C@@H](CC(=O)N3CCc4ccccc4C3)O[C@@H](CO)[C@@H]1O2,-1.46% (inactive)
9,COCCNC(=O)C[C@@H]1C[C@H]2c3cc(N(C)C)ccc3O[C@H]2[C@H](CO)O1,-5.65% (inactive)
10,CCNC(=O)C[C@H]1CC[C@@H]2[C@H](COc3ccc(NC(=O)c4cc(C)on4)cc3C(=O)N2C)O1,-0.229% (inactive)
11,CN(C)c1ccc2c(c1)[C@@H]1C[C@@H](CC(=O)NCCc3ccccc3)O[C@@H](CO)[C@@H]1O2,-3.65% (inactive)
12,COc1ccccc1CNC(=O)C[C@@H]1C[C@H]2c3cc(N(C)C)ccc3O[C@H]2[C@H](CO)O1,-11.3% (inactive)
13,CN1C(=O)c2cc(NS(C)(=O)=O)ccc2OC[C@@H]2O[C@@H](CC(=O)NCc3ccc(-c4ccccc4)cc3)CC[C@H]21,-0.9% (inactive)
14,O=C(C[C@@H]1C[C@H]2c3cc(NS(=O)(=O)c4ccc(F)cc4)ccc3O[C@H]2[C@H](CO)O1)NCc1ccc(Oc2ccccc2)cc1,-4.18% (inactive)
15,COCCNC(=O)C[C@H]1CC[C@@H]2[C@H](COc3ccc(NC(=O)c4cc(C)on4)cc3C(=O)N2C)O1,-8.48% (inactive)
16,CN(C)c1ccc2c(c1)[C@@H]1C[C@@H](CC(=O)NCc3ccncc3)O[C@@H](CO)[C@@H]1O2,0.09% (inactive)
17,CN(C)c1ccc2c(c1)[C@@H]1C[C@@H](CC(=O)NCc3ccc(Oc4ccccc4)cc3)O[C@@H](CO)[C@@H]1O2,-5.55% (inactive)

# Same assay, conditions: HEK293 TNFa-induced NF-kB eGFP reporter, flow cytometry, 16 h; at 21 µM (top of the series)
row,Compound,"activity change, negative = inhibition"
1,Cc1cc(C(=O)Nc2ccc3c(c2)C(=O)N(C)[C@@H]2CC[C@H](CC(=O)NCc4ccc(-c5ccccc5)cc4)O[C@@H]2CO3)no1,-0.92% (inactive)
2,Cc1cc(C(=O)Nc2ccc3c(c2)C(=O)N(C)[C@@H]2CC[C@H](CC(=O)N[C@@H](C)c4ccccc4)O[C@H]2CO3)no1,-5.47% (inactive)

# Reference: PubChem BioAssay AID652043 (Broad Institute, 2013)
